In BindingDB's records for doi:10.1021/acs.jmedchem.6b00608 (Chinese Academy of Sciences, 2016):

target: T1, Tyrosine-protein kinase receptor UFO (Homo sapiens, UniProt P30530); assay: Inhibition of human recombinant AXL incubated for 1 to 1.5 hrs by FRET based Z'-Lyte kinase assay
T1 sequence (P30530 whole entry): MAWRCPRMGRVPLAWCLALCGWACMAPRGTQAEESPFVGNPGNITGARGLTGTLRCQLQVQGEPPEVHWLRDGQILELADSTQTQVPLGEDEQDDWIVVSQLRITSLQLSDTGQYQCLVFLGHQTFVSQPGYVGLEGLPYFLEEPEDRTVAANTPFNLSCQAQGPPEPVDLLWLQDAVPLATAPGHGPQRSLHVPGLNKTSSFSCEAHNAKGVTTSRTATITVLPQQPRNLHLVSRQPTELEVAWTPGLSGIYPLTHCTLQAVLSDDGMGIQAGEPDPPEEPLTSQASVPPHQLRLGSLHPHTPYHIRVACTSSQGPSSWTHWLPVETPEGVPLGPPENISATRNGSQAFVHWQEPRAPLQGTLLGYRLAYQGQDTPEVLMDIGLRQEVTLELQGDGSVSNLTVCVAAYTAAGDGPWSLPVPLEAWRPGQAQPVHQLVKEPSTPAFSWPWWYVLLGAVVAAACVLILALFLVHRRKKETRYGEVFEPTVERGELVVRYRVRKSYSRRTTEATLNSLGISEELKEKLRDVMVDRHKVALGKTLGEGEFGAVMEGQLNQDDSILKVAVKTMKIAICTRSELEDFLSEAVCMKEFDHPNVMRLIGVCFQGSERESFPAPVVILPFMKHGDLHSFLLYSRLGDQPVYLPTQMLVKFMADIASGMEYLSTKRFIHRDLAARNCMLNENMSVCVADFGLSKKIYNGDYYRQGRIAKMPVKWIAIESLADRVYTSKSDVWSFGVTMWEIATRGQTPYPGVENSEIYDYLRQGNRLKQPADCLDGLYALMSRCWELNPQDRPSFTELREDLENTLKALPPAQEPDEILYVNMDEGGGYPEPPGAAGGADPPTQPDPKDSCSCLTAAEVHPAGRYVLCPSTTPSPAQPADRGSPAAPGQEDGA

Row | IC50 | SMILES
1 | > 10 µM | Cc1c(C(=O)Nc2ccc(Oc3ncnc4[nH]cc(-c5ccccc5)c34)c(F)c2)c(=O)c2cc(F)ccc2n1C
2 | > 10 µM | Cc1c(C(=O)Nc2ccc(Oc3ncnc4[nH]cc(-c5ccccc5)c34)c(F)c2)c(=O)c2cc3ccccc3cc2n1C
3 | > 10 µM | Cc1c(C(=O)Nc2ccc(Oc3ncnc4[nH]cc(-c5ccccc5)c34)c(F)c2)c(=O)c2cc(-c3ccccc3)ccc2n1C
